Laboratory results taken from patent publication US20250382344A1, “Soluble GLP1/GIP/NPY2 Receptor Triple Agonists” (Boehringer Ingelheim International GmH, priority 2024, published 2025).
Like-named read-outs stand apart in the source and are kept apart here. *1 amine or outer side, *2 acyl side, *3 side chain or, on linkers, in order; H or OH if unused. Where a SMILES comes first, the peptide text is derived from it. Side-chain parts run from the residue outwards. [ ]: non-standard residue; d: D form. The star is where a group is joined. C18 diacid = O=C(O)CCCCCCCCCCCCCCCCC(=O)*; γGlu = O=C(O)[C@H](CCC(=O)[*:2])N[*:1]; Aib = CC(C)(N)C(=O)O

Columns and labels:
hGIPR = biological target: T1, hGIPR (Homo sapiens, UniProt P48546); assay: hGIPR CreLuc assay in 0.5% and 100% plasma (CHO CRE-luciferase reporter cells); type: cell-based
T1 construct: expressed in transfected cells; host or cells: CHO CRE-luciferase reporter cells
T1 sequence (P48546 22-466): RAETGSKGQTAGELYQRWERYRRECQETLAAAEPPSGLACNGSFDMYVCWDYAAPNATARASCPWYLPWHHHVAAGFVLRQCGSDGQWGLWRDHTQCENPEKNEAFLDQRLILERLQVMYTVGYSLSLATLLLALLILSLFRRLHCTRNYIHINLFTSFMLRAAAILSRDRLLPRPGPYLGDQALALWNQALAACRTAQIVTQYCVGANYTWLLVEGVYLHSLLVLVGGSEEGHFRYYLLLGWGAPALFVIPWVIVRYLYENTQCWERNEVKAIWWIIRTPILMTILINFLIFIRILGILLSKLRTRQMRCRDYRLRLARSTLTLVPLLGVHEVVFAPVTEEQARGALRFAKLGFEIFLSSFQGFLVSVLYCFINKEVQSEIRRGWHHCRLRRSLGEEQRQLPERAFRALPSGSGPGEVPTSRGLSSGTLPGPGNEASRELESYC

hGLP1R = biological target: T2, hGLP1R (Homo sapiens, UniProt P43220); assay: hGLP1R CreLuc assay in 0.5% and 100% plasma (HEK-293 CRE-luciferase reporter cells); type: cell-based; settings: HEK-293 reporter cells
T2 construct: expressed in transfected cells; host or cells: HEK-293 CRE-luciferase reporter cells
T2 sequence (P43220 24-463): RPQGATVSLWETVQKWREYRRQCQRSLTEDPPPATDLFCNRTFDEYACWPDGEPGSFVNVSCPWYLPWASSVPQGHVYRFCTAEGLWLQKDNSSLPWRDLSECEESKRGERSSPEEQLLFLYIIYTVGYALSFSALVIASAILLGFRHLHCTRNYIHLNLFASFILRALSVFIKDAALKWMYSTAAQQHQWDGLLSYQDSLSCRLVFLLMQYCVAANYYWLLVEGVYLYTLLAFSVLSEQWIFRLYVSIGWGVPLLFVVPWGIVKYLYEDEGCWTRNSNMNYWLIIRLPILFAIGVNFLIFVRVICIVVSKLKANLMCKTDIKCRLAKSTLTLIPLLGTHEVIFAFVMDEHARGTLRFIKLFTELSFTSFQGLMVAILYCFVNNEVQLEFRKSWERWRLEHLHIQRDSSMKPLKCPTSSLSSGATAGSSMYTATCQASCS
Description: CHO and HEK-293 recombinant cell lines express a luciferase reporter gene under control of the CAMP responsive element (CRE). As a second recombinant protein the GLP-1 and NPY2 receptors were expressed in the reporter gene HEK cells, and the GIP receptor was expressed in the reporter gene CHO cells, respectively. Stimulation of these recombinant cells with an agonist leads to an increase of intracellular CAMP levels. In the presence of CAMP, the transcription factor CRE binding protein (CREB) binds to the CRE and to the CREB binding protein (CBP), which leads to transcription of the luciferase reporter gene. Peptides upon serial-dilution in 100% DMSO were transferred into 384-well assay plates with 5 μl pre-dispensed assay buffer (1×HBSS, 20 mM HEPES, pH7.4 supplemented with 0.5% human plasma) using acoustic dispensing on a Labcyte ECHO. Cryo-preserved transgenic reporter gene cells were thawed in assay buffer. 20 μl (10.000 cells/well) were added to the plate with the peptides and incubated for 4 hours at 37° C. in a humidified incubator. Following incubation, assay plates are equilibrated to room temperature, followed by addition of 25 μl of Bright-Glo™ Luciferase reagent, incubation at room temperature for 10 minutes and analysis of luminescence (Envision Reader). […] EC50 values were calculated by non-linear regression using sigmoid concentration-response with variable slope.
The same assays were run in the presence of 100% plasma with no additional buffer constituents.

[1] = Solubility in 0.1 M phosphate buffer at pH 7; type: physicochemical; settings: 0.1 M phosphate buffer at pH 7, 10 mg/mL final peptide concentration, shaking 2 hours at room temperature, peptides as TFA-salts, measured sample pH 6.5-7.0
[2] = 0.5% human plasma, read-out: hGIPR 0.5% hP
[3] = 0.5% human plasma, read-out: hGLP1R 0.5% hP

CC[C@H](C)[C@H](NC(=O)[C@H](CC(C)C)NC(=O)[C@H](Cc1c[nH]cn1)NC(=O)[C@H](CCCNC(=N)N)NC(=O)[C@@H](NC(=O)[C@H](Cc1ccccc1)NC(=O)[C@H](C)NC(=O)C(C)(C)NC(=O)[C@H](CCC(N)=O)NC(=O)[C@H](C)NC(=O)[C@H](CCC(N)=O)NC(=O)[C@H](CCCCN)NC(=O)[C@H](CCC(=O)O)NC(=O)[C@H](CC(C)C)NC(=O)C(C)(C)NC(=O)[C@H](C)NC(=O)[C@H](CO)NC(=O)[C@H](Cc1ccc(O)cc1)NC(=O)[C@H](CC(=O)O)NC(=O)[C@H](CO)NC(=O)[C@@H](NC(=O)[C@H](Cc1ccccc1)NC(=O)[C@@H](NC(=O)CNC(=O)[C@H](CCC(=O)O)NC(=O)C(C)(C)NC(=O)[C@@H](N)Cc1ccc(O)cc1)[C@@H](C)O)[C@@H](C)O)C(C)C)C(=O)N[C@@H](CC(N)=O)C(=O)N[C@@H](CCCCNC(=O)[C@@H](N)CCCCNC(=O)CC[C@H](NC(=O)CC[C@H](NC(=O)CC[C@H](NC(=O)CC[C@H](NC(=O)CC[C@H](NC(=O)CC[C@H](NC(=O)CCCCCCCCCCCCCCCCC(=O)O)C(=O)O)C(=O)O)C(=O)O)C(=O)O)C(=O)O)C(=O)O)C(=O)NC(C)(C)C(=O)N[C@H](C(=O)N[C@@H](CCCNC(=N)N)C(=O)N[C@@H](CCC(N)=O)C(=O)N[C@@H](CCCNC(=N)N)C(=O)N[C@@H](Cc1ccc(O)cc1)C(N)=O)[C@@H](C)O [Compound 156, Y-Aib-E-G-T-F-T-S-D-Y-S-A-Aib-L-E-K-Q-A-Q-Aib-A-F-V-R-H-L-I-N-K(1,3)-Aib-T-R-Q-R-Y-NH2.C18DA-gGlu-gGlu-gGlu-gGlu-gGlu-gGlu-eLys(1,2)]
EC50 (hGIPR; [2]): 0.8 nM | EC50 (hGLP1R; [3]): 7 nM | solubility ([1]; read-out: Solubility): 5100 µg/mL

CC[C@H](C)[C@H](NC(=O)[C@H](CC(C)C)NC(=O)[C@H](Cc1c[nH]cn1)NC(=O)[C@H](CCCNC(=N)N)NC(=O)[C@@H](NC(=O)[C@H](Cc1ccccc1)NC(=O)[C@H](CCC(=O)O)NC(=O)C(C)(C)NC(=O)[C@H](CCC(N)=O)NC(=O)[C@H](C)NC(=O)[C@H](CCC(N)=O)NC(=O)[C@H](CCC(=O)O)NC(=O)[C@H](CCC(=O)O)NC(=O)[C@H](CC(C)C)NC(=O)C(C)(C)NC(=O)[C@@H](NC(=O)[C@H](CO)NC(=O)[C@H](Cc1ccc(O)cc1)NC(=O)[C@H](CC(=O)O)NC(=O)[C@H](CO)NC(=O)[C@@H](NC(=O)[C@H](Cc1ccccc1)NC(=O)[C@@H](NC(=O)CNC(=O)[C@H](CCC(=O)O)NC(=O)C(C)(C)NC(=O)[C@@H](N)Cc1ccc(O)cc1)[C@@H](C)O)[C@@H](C)O)[C@@H](C)CC)C(C)C)C(=O)N[C@@H](CC(N)=O)C(=O)N[C@@H](CCCCNC(=O)CC[C@H](NC(=O)CC[C@H](NC(=O)CC[C@H](NC(=O)CC[C@H](NC(=O)CCCCCCCCCCCCCCCCC(=O)O)C(=O)O)C(=O)O)C(=O)O)C(=O)O)C(=O)NC(C)(C)C(=O)N[C@H](C(=O)N[C@@H](CCCNC(=N)N)C(=O)N[C@@H](CCC(N)=O)C(=O)N[C@@H](CCCNC(=N)N)C(=O)N[C@@H](Cc1ccc(O)cc1)C(N)=O)[C@@H](C)O [Compound 129, Y-Aib-E-G-T-F-T-S-D-Y-S-I-Aib-L-E-E-Q-A-Q-Aib-E-F-V-R-H-L-I-N-K(1,3)-Aib-T-R-Q-R-Y-NH2.C18DA-gGlu-gGlu-gGlu-gGlu(1,2)] (H-Y[Aib]EGTFTSDYSI[Aib]LEEQAQ[Aib]EFVRHLINK([γGlu-γGlu-γGlu-γGlu-C18 diacid])[Aib]TRQRY-NH2)
EC50 (hGIPR; [2]): 0.4 nM | EC50 (hGIPR; 100% human plasma, read-out: hGIPR 100% hP): 7.1 nM | EC50 (hGLP1R; [3]): 0.9 nM | EC50 (hGLP1R; 100% human plasma, read-out: hGLP1R 100% hP): 2.8 nM | solubility at 2 h [1]: 5100 µg/mL

CC[C@H](C)[C@H](NC(=O)[C@H](CC(C)C)NC(=O)[C@H](Cc1c[nH]cn1)NC(=O)[C@H](CCCNC(=N)N)NC(=O)[C@@H](NC(=O)[C@H](Cc1ccccc1)NC(=O)[C@H](CCC(=O)O)NC(=O)C(C)(C)NC(=O)[C@H](CCC(N)=O)NC(=O)[C@H](C)NC(=O)[C@H](CCC(=O)O)NC(=O)[C@H](CCC(=O)O)NC(=O)[C@H](CCC(=O)O)NC(=O)[C@H](CC(C)C)NC(=O)C(C)(C)NC(=O)[C@@H](NC(=O)[C@H](CO)NC(=O)[C@H](Cc1ccc(O)cc1)NC(=O)[C@H](CC(=O)O)NC(=O)[C@H](CO)NC(=O)[C@@H](NC(=O)[C@H](Cc1ccccc1)NC(=O)[C@@H](NC(=O)CNC(=O)[C@H](CCC(=O)O)NC(=O)C(C)(C)NC(=O)[C@@H](N)Cc1ccc(O)cc1)[C@@H](C)O)[C@@H](C)O)[C@@H](C)CC)C(C)C)C(=O)N[C@@H](CC(N)=O)C(=O)N[C@@H](CCCCNC(=O)COCCOCCNC(=O)COCCOCCNC(=O)CC[C@H](NC(=O)CCCCCCCCCCCCCCCCC(=O)O)C(=O)O)C(=O)NC(C)(C)C(=O)N[C@H](C(=O)N[C@@H](CCCNC(=N)N)C(=O)N[C@@H](CCC(N)=O)C(=O)N[C@@H](CCCNC(=N)N)C(=O)N[C@@H](Cc1ccc(O)cc1)C(N)=O)[C@@H](C)O [Compound 130, Y-Aib-E-G-T-F-T-S-D-Y-S-I-Aib-L-E-E-E-A-Q-Aib-E-F-V-R-H-L-I-N-K(1,3)-Aib-T-R-Q-R-Y-NH2.C18DA-gGlu-OEG-OEG(1,2)]
EC50 (hGIPR; [2]): 0.5 nM | EC50 (hGLP1R; [3]): 0.5 nM | solubility at 2 h [1]: 5000 µg/mL

CC[C@H](C)[C@H](NC(=O)[C@H](CO)NC(=O)[C@H](CC(C)C)NC(=O)[C@H](CC(=O)O)NC(=O)[C@H](CO)NC(=O)[C@@H](NC(=O)[C@H](Cc1ccccc1)NC(=O)[C@@H](NC(=O)CNC(=O)[C@H](CCC(=O)O)NC(=O)C(C)(C)NC(=O)[C@@H](N)Cc1ccc(O)cc1)[C@@H](C)O)[C@@H](C)O)C(=O)NC(C)(C)C(=O)N[C@@H](CC(C)C)C(=O)N[C@@H](CCC(=O)O)C(=O)N[C@@H](CCCCN)C(=O)N[C@@H](CCC(N)=O)C(=O)N[C@@H](C)C(=O)N[C@@H](CCC(N)=O)C(=O)NC(C)(C)C(=O)N[C@@H](C)C(=O)N[C@@H](Cc1ccccc1)C(=O)N[C@H](C(=O)N[C@@H](CCCNC(=N)N)C(=O)N[C@@H](Cc1c[nH]cn1)C(=O)N[C@@H](CC(C)C)C(=O)N[C@@H](CC(C)C)C(=O)N[C@@H](CC(N)=O)C(=O)N[C@@H](CCCCNC(=O)[C@@H](N)CCCCNC(=O)CC[C@H](NC(=O)CC[C@H](NC(=O)CC[C@H](NC(=O)CC[C@H](NC(=O)CC[C@H](NC(=O)CC[C@H](NC(=O)CCCCCCCCCCCCCCCCCCC(=O)O)C(=O)O)C(=O)O)C(=O)O)C(=O)O)C(=O)O)C(=O)O)C(=O)NC(C)(C)C(=O)N[C@H](C(=O)N[C@@H](CCCNC(=N)N)C(=O)N[C@@H](CCC(N)=O)C(=O)N[C@@H](CCCNC(=N)N)C(=O)N[C@@H](Cc1ccc(O)cc1)C(N)=O)[C@@H](C)O)C(C)C [Compound 115, Y-Aib-E-G-T-F-T-S-D-L-S-I-Aib-L-E-K-Q-A-Q-Aib-A-F-V-R-H-L-L-N-K(1,3)-Aib-T-R-Q-R-Y-NH2.C20DA-gGlu-gGlu-gGlu-gGlu-gGlu-gGlu-eLys(1,2)]
EC50 (hGLP1R; hGLP1R 0.5% hP (nM), 0.5% human plasma): 7 nM | solubility at 2 h [1]: 8200 µg/mL
